PMC9930359, “Cytotoxicity of the methanol extracts and compounds of Brucea antidysenterica (Simaroubaceae) towards multifactorial drug-resistant human cancer cell lines” (BMC Complementary Medicine and Therapies, 2023)
Converted amounts (≈) assume the structure as drawn. One block for each compound: values may come before it.

Key:
[1] = system: CCRF-CEM leukemia cells; test: Resazurin reduction assay (RRA), cytotoxicity; format: cell-based; settings: Homo sapiens, 72 h
Description: (§3) In this work, 9 cancer cell lines with various drug resistance patterns as well as AML12 hepatocytes as normal control cell line were used. […] The AML12 hepatocytes were used for the comparison of the activities of the samples with HepG2 [40]. […] The RPMI-1640 medium was used for the culture of CCRF-CEM and CEM/ADR5000 cells whilst DMEM medium was used for carcinoma cells. The culture media were supplemented (complete medium) with 10% fetal bovine serum and 1% penicillin/streptomycin (Invitrogen, Eggenstein, Germany). […] To maintain the resistance phenotype of the resistant carcinoma cell lines such as MDA-MB-231/BCRP and HCT116 p53^−/−, and U87MG.ΔEGFR cells, the complete DMEM medium containing geneticin at 800 ng/ml and 400 µg/ml, respectively were used [41, 42].
(§4) Cells were cultured in a standard condition consisted of a humidified 5% CO2 atmosphere and an incubation temperature of 37 °C. The tested concentration ranges were 0.63—80 µg/mL for the botanicals and 0.78—100 µM for phytochemicals. The incubation time of the treated cells was 72 h, and the fluorescence was measured with Infinite M2000 Pro™ plate reader (Tecan, Crailsheim, Germany). The wavelengths used were 544 nm for the excitation and 590 nm for the emission. […] The degree of resistance (D.R.) was set as the ratio of the IC50 values of samples in the resistant cell line vs that of corresponding sensitive cell line. The selectivity index (S.I.) was the ratio of the IC50 value of AML12 hepatocytes vs. that of HepG2 cells [13, 48].

[2] = system: CEM/ADR5000 cells; test: Resazurin reduction assay (RRA), cytotoxicity; format: cell-based, human; settings: for IC50: Homo sapiens, CEM/ADR5000, 72 h; for Degree of resistance (D.R.): ratio of IC50 CEM/ADR5000 vs CCRF-CEM
Experimental: (§5) The RPMI-1640 medium was used for the culture of CCRF-CEM and CEM/ADR5000 cells whilst DMEM medium was used for carcinoma cells. The culture media were supplemented (complete medium) with 10% fetal bovine serum and 1% penicillin/streptomycin (Invitrogen, Eggenstein, Germany). […] To maintain the resistance phenotype of the resistant carcinoma cell lines such as MDA-MB-231/BCRP and HCT116 p53^−/−, and U87MG.ΔEGFR cells, the complete DMEM medium containing geneticin at 800 ng/ml and 400 µg/ml, respectively were used [41, 42].
as §4

[3] = system: MDA-MB-231-pcDNA cells; test: Resazurin reduction assay (RRA), cytotoxicity; format: cell-based; settings: Homo sapiens, 72 h
Description: as §3, §4

[4] = system: HCT116 p53+/+ cells; test: Resazurin reduction assay (RRA), cytotoxicity; format: cell-based; settings: Homo sapiens, HCT-116, 72 h
Description: as §3, §4

[5] = system: HCT116 p53−/− cells; test: Resazurin reduction assay (RRA), cytotoxicity; format: cell-based, human; settings: for IC50: Homo sapiens, HCT-116, HCT116 p53−/−, 72 h; for Degree of resistance (D.R.): ratio of IC50 HCT116 p53−/− vs HCT116 p53+/+
Experimental: as §5, §4

[6] = system: U87MG cells; test: Resazurin reduction assay (RRA), cytotoxicity; format: cell-based; settings: Homo sapiens, U-87 MG, 72 h
Description: as §3, §4

[7] = system: U87MG.ΔEGFR cells; test: Resazurin reduction assay (RRA), cytotoxicity; format: cell-based, human; settings: for IC50: Homo sapiens, U87MG.ΔEGFR, 72 h; for Degree of resistance (D.R.): ratio of IC50 U87.MGΔEGFR vs U87.MG
Experimental: as §5, §4

[8] = system: HepG2 cells; test: Resazurin reduction assay (RRA), cytotoxicity; format: cell-based; settings: Homo sapiens, HepG2, 72 h
Description: as §3, §4

[9] = system: AML12 hepatocytes; test: Resazurin reduction assay (RRA), cytotoxicity on normal hepatocytes; format: cell-based; settings: for IC50: Mus musculus, AML12 normal hepatocytes, 72 h; for Selectivity index (S.I.): ratio of IC50 in AML12 vs IC50 in HepG2 cells
Experimental: as §5, §4

[10] = system: CCRF-CEM cells; test: Cell cycle distribution by flow cytometry (PI staining); format: cell-based, human
Experimental: The modification of the cell cycle distribution of CCRF-CEM induced by the botanicals BAL, the flavonolignan 2, the control drug, doxorubicin, or the solvent control DMSO was determined by flow cytometry under the previously reported work conditions. BAL and compound 2 were applied to CCRF-CEM cells (1 ml; 1 × 10^6 cells) at their ¼ IC50, ½ IC50, IC50, and 2 × IC50 values. The whole was then incubated for 24 h as earlier indicated followed by the analysis of the cell cycle distribution with a BD Accury C6 Flow Cytometer (BD Biosciences, Heidelberg, Germany). Assays were performed three times in triplicates.

[11] = system: CCRF-CEM cells; test: Apoptosis by annexin V/PI staining and flow cytometry; format: cell-based, human; settings: 2 x IC50, 24 h
Description: Afterward, apoptosis detection was undertaken with a fluorescein isothiocynate (FITC)-conjugated annexin V/PI assay kit (eBioscience™ Annexin V; Invitogen, San Diego, USA). The measurement was done using BD Accury C6 Flow Cytometer (BD Biosciences) under experimental conditions previously reported. The assays were done thrice independently with three repetitions each.

[12] = system: caspase 8 in CCRF-CEM cells; test: Caspase-Glo assay; format: cell-based, human; settings: 2 × IC50, 6 h
Experimental: (§1) The activity of caspases in CCRF-CEM cells treated with BAL and the flavonolignan 2 was determined by Caspase-Glo assay. […] The whole was then incubated for 6 h (standard culture conditions) and the activity of caspases was detected by spectrophotometry as previously described.

[13] = system: caspase 9 in CCRF-CEM cells; test: Caspase-Glo assay; format: cell-based, human; settings: 2 × IC50, 6 h
Experimental: as §1

[14] = system: CCRF-CEM cells; test: Mitochondrial membrane potential (MMP), JC-1 staining, flow cytometry; format: cell-based, human; settings: 2 × IC50, 24 h
Experimental: (§2) The modification of the MMP as well as the ROS levels after the application of BAL, and flavonolignan 2 at ¼ IC50, ½ IC50, IC50, and 2 × IC50 to CCRF-CEM cells (1 × 10^6) was performed by flow cytometry. DMSO was used as solvent control while valinomycin served as a positive control. The cells were incubated for 24 h and further stained for 30 min with JC-1 [45] and measured (1 × 10^4 cells) in an LSR-Fortessa FACS analyzer (Becton–Dickinson). For ROS determination, CCEF-CEM cells were similarly treated BAL, the flavonolignan 2, hydrogen peroxide (H2O2; positive control), DMSO (solvent control) as in the MMP analysis, then incubated for 24 h. They were further stained with H2DCFH-DA and measured (1 × 10^4 cells) in an LSR-Fortessa FACS analyzer.

[15] = system: CCRF-CEM cells; test: Reactive oxygen species (ROS), H2DCFH-DA staining, flow cytometry; format: cell-based, human
Experimental: as §2

[16] = system: nine cancer cell lines; test: RRA cytotoxicity, summary over the panel; format: cell-based, human; settings: number out of 9 cancer cell lines
Description: as §3
Cells were cultured in a standard condition consisted of a humidified 5% CO2 atmosphere and an incubation temperature of 37 °C. The tested concentration ranges were 0.63—80 µg/mL for the botanicals and 0.78—100 µM for phytochemicals. The incubation time of the treated cells was 72 h, and the fluorescence was measured with Infinite M2000 Pro™ plate reader (Tecan, Crailsheim, Germany). The wavelengths used were 544 nm for the excitation and 590 nm for the emission. […] The degree of resistance (D.R.) was set as the ratio of the IC50 values of samples in the resistant cell line vs that of corresponding sensitive cell line. […]

[17] = system: 697 pre-B acute lymphoblastic leukemia cell line; parameters: method as in PMID 23280566; settings: 697 pre-B ALL ref 59; cited from earlier work
[18] = system: L-1210 leukemia cells; parameters: method as in PMID 1800632; settings: murine L-1210 ref 60; cited from earlier work
[19] = system: Tmolt3 leukemia cells; parameters: method as in PMID 1800632; settings: Tmolt3 ref 60; cited from earlier work
[20] = system: KB nasopharynx cancer cells; parameters: method as in PMID 1800632; settings: KB ref 60; cited from earlier work
[21] = system: S-480 colon adenocarcinoma; parameters: method as in PMID 1800632; settings: S-480 ref 60; cited from earlier work
[22] = system: TE-418 osteosarcoma cells; parameters: method as in PMID 1800632; settings: TE-418 ref 60; cited from earlier work
[23] = system: HeLa-S3 uterine cells; parameters: method as in PMID 1800632; settings: HeLa-S3 ref 60; cited from earlier work
[24] = system: MB-9812 lung cancer cells; parameters: method as in PMID 1800632; settings: MB-9812 ref 60; cited from earlier work
[25] = system: SW480 colon cancer cells; parameters: method as in PMID 24018191; settings: SW480 ref 61; cited from earlier work
[26] = system: MDA-MB-231-BCRP cells; test: Resazurin reduction assay (RRA), cytotoxicity; settings: for IC50: Homo sapiens, MDA-MB-231/BCRP, 72 h; for Degree of resistance (D.R.): ratio of IC50 MDA-MB-231-BCRP vs MDA-MB-231-pcDNA
Experimental: as §5, §4

Compound: COc1cc([C@H]2Oc3cc(-c4cc(=O)c5c(O)cc(O)cc5o4)ccc3O[C@@H]2CO)ccc1O [Compound 2, hydnocarpin]
- IC50 [1]: 4.28 ± 0.31 µM
- IC50 [2]: 3.07 ± 0.18 µM
- Degree of resistance (D.R.) [2]: 0.72
- IC50 [3]: 4.07 ± 0.37 µM
- IC50 [4]: 11.4 ± 0.98 µM
- IC50 [5]: 6.74 ± 0.33 µM
- Degree of resistance (D.R.) [5]: 0.59
- IC50 [6]: 9.29 ± 0.73 µM
- IC50 [7]: 5.42 ± 0.44 µM
- Degree of resistance (D.R.) [7]: 0.58
- IC50 [8]: 2.73 ± 0.19 µM
- IC50 [9]: 51.2 ± 3.2 µM
- cells in sub-G0/G1 phase ([10]; 1/4 × IC50, 24 h): 3.41 ± 0.2%
- cells in sub-G0/G1 phase ([10]; 2 × IC50, 24 h): 38.40 ± 2.6%
- Q2-LR: early apoptotic cells annexin (+)/PI (-) [11]: 9.4 ± 0.8%
- Q2-UR: annexin V (+)/PI (+) late apoptotic or necrotic cells [11]: 18.5 ± 1.3%
- increase of activity of caspase 8 [12]: 2.12 fold
- increase of activity of caspase 9 [13]: 2.67 fold
- Q1: cells with undamaged (intact) MMP [14]: 10.4%
- Q2: cells with MMP loss [14]: 70.5%
- cells with disrupted MMP (Q3 and Q4) [14]: 19.1%
- ROS levels in treated cells ([15]; 1/4 × IC50, 24 h): 6.00%
- ROS levels in treated cells ([15]; 2 × IC50, 24 h): 49.00%
- cancer cell lines with IC50 ≤ 10 μM [16]: 8/9
- melting point: 261 to 263 °C
- IC50 [17]: 8.7 µM
- IC50 [18]: 3.65 µg/mL (≈ 7.86 µM)
- IC50 [19]: 32.94 µg/mL (≈ 70.9 µM)
- IC50 [20]: 1.15 µg/mL (≈ 2.48 µM)
- IC50 [21]: 2.00 µg/mL (≈ 4.31 µM)
- IC50 [22]: 2.14 µg/mL (≈ 4.61 µM)
- IC50 [23]: 2.02 µg/mL (≈ 4.35 µM)
- IC50 [24]: 8.18 µg/mL (≈ 17.6 µM)
- IC50 [25]: 20.3 µM
- IC50 [26]: 6.65 ± 0.24 µM
- Degree of resistance (D.R.) [26]: 1.63

- melting point: 209 to 211 °C
Compound: CC(C)(O)[C@@H](O)Cc1cn([C@@H]2O[C@H](CO)[C@@H](O)[C@H](O)[C@H]2O)c2ccccc12 [Compound 7, 3-(2’,3’-dihydroxy-3’-méthylbutyl)-1N-β-glucopyranosylindole]
- IC50 [1]: 20.4 ± 0.94 µM
- IC50 [2]: > 100 µM
- Degree of resistance (D.R.) [2]: > 4.91
- IC50 [3]: > 100 µM
- IC50 [4]: > 100 µM
- IC50 [5]: > 100 µM
- IC50 [6]: > 100 µM
- IC50 [7]: > 100 µM
- IC50 [8]: > 100 µM
- IC50 [9]: > 100 µM
- IC50 [26]: > 100 µM

Compound: C[C@@H](O)C1CCC2C3CC=C4C[C@@H](O[C@@H]5OC[C@H](O)[C@H](O)[C@H]5O[C@@H]5O[C@H](CO)[C@@H](O)[C@H](O)[C@H]5O)CC[C@]4(C)C3CC[C@@]21C (stereo partly drawn) [Compound 4, (20R)-O-(3)-β-D-glucopyranosyl(1 → 2)-α-L-arabinopyranosyl-pregn-5-en-3β,20-diol]
- IC50 [1]: 32 ± 2.16 µM
- IC50 [2]: > 100 µM
- Degree of resistance (D.R.) [2]: > 3.13
- IC50 [3]: > 100 µM
- IC50 [4]: > 100 µM
- IC50 [5]: 32.2 ± 2.37 µM
- Degree of resistance (D.R.) [5]: < 0.32
- IC50 [6]: 28.3 ± 2.08 µM
- IC50 [7]: 28.3 ± 1.66 µM
- Degree of resistance (D.R.) [7]: 1.00
- IC50 [8]: 31.2 ± 2.11 µM
- IC50 [9]: > 100 µM
- Selectivity index (S.I.) [9]: > 3.21
- melting point: 258 to 260 °C
- IC50 [26]: > 100 µM

Compound: COc1cccc2c1C(=O)c1c(O)c3c(c(O)c1C2=O)C[C@@](O)(C(=O)CO)C[C@@H]3O[C@H]1C[C@H](N)[C@H](O)[C@H](C)O1 [Doxorubicin, reference compound]
- IC50 [1]: 0.02 µM
- IC50 ([1]; Table 2): 0.02 µg/mL
- IC50 ([2]; Table 2): 123 ± 10.9 µg/mL
- Degree of resistance (D.R.) [2]: 6,683.00
- IC50 ([3]; Table 2): 0.13 ± 0.01 µg/mL
- IC50 ([5]; Table 2): 1.78 ± 0.08 µg/mL
- Degree of resistance (D.R.) [5]: 3.73
- IC50 ([6]; Table 2): 0.26 ± 0.03 µg/mL
- IC50 ([7]; Table 2): 0.98 ± 0.07 µg/mL
- Degree of resistance (D.R.) [7]: 3.79
- IC50 ([8]; Table 2): 4.56 ± 0.48 µg/mL
- IC50 ([9]; Table 2): > 50 µg/mL
- IC50 [26]: 0.79 ± 0.08 µg/mL
- Degree of resistance (D.R.) [26]: 6.14

Compound: CC(C)=CC(=O)c1c[nH]c2ccccc12 [Compound 1, 3, (3-(3-methyl-1-oxo-2-butenyl))1H indole]
- IC50 [1]: 19.1 ± 1.56 µM
- IC50 [2]: 32 ± 2.05 µM
- Degree of resistance (D.R.) [2]: 1.68
- IC50 [3]: 13.4 ± 0.93 µM
- IC50 [4]: 23.9 ± 2.32 µM
- IC50 [5]: 36.4 ± 3.04 µM
- Degree of resistance (D.R.) [5]: 1.53
- IC50 [6]: 24.2 ± 1.16 µM
- IC50 [7]: 36.3 ± 3.01 µM
- Degree of resistance (D.R.) [7]: 1.50
- IC50 [8]: 39.9 ± 2.84 µM
- IC50 [9]: > 100 µM
- Selectivity index (S.I.) [9]: > 2.50
- IC50 [26]: 47.5 ± 2.75 µM
- Degree of resistance (D.R.) [26]: 3.54
